Experimental data: article PMC11219871, “Epigenetic-based differentiation therapy for Acute Myeloid Leukemia” (Nature Communications, 2024)
Several values for one entry are separate records, joined by “and”; a condition that tells them apart may be missing. Identical values can stand only once.

Legend:
MONO-MAC-6 = test: Differentiation assay, CD11b / annexin-V flow cytometry; assay type: cell-based; conditions: MONOMAC-6 cell line; replicates 1-3 (Figure 2A)
Experimental: (§1) Next, the cells were washed twice with phosphate-buffered saline (PBS) and resuspended in 1X Binding Buffer at a concentration of 1 × 10^6 cells/mL. An 8-µL aliquot of APC-CD11b (BD Pharmingen, Franklin Lakes, NJ, USA) and 1 µL of FITC annexin-V (AV) (BD Pharmingen, Franklin Lakes, NJ, USA) antibodies were added and incubated for 15 min at room temperature in the dark. Finally, after the addition of 400 µL of 1X Binding Buffer to each tube, samples were collected on a BD FACSCanto flow cytometer (Becton Dickinson, San Jose, CA, USA) and analyzed using FlowJo software.

OCI-AML2 = test: as above; assay type: cell-based; conditions: OCI-AML-2 cell line; replicates 1-3 (Figure 2A)
Experimental: as §1

UT-7 = test: as above; assay type: cell-based; conditions: UT7 cell line; replicates 1-3 (Figure 2A)
Experimental: as §1

NB-4 = test: as above; assay type: cell-based; conditions: NB4 cell line; replicates 1-3 (Figure 2A)
Experimental: as §1

OCI-AML3 = test: as above; assay type: cell-based; conditions: OCI-AML-3 cell line; replicates 1-3 (Figure 2A)
Experimental: as §1

KASUMI-1 = test: as above; assay type: cell-based; conditions: KASUMI-1 cell line; replicates 1-3 (Figure 2A);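 further: daily treatment at a GI50-based fraction of each compound's GI50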
Experimental: as §1

GF-D8 = test: as above; assay type: cell-based; conditions: GF-D8 cell line; replicates 1-3 (Figure 2A);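 further: daily treatment at a GI50-based fraction of each compound's GI50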
Experimental: as §1

M-O7e = test: as above; assay type: cell-based; conditions: MO7e cell line; replicates 1-3 (Figure 2A);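 further: daily treatment at a GI50-based fraction of each compound's GI50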
Experimental: as §1

ML-2 = test: Acetylome analysis (Acetyl-K enrichment, LC-MS/MS); assay type: cell-based, human; conditions: for Acetyl-K sites regulated, Number, Histone proteins / Acetyl-K sites regulated, Number, Non-histone proteins / Acetyl-K sites regulated, Percentages, Histone proteins / Acetyl-K sites regulated, Percentages, Non-histone proteins: Fig 4G; for Acetyl-K sites: Down-regulated, % / Acetyl-K sites: Down-regulated, Number / Acetyl-K sites: Non-regulated, % / Acetyl-K sites: Non-regulated, Number / Acetyl-K sites: Quantified (total number) / Acetyl-K sites: Regulated, % / Acetyl-K sites: Regulated, Number / Acetyl-K sites: Up-regulated, % / Acetyl-K sites: Up-regulated, Number: ML-2 (Fig 4C); for Acetyl-K sites, Down-regulated / Acetyl-K sites, Up-regulated: Fig. 4C; for regulated Acetyl-K sites in Histone proteins / regulated Acetyl-K sites in Non-histone proteins: Fig. 4G; for percentage of Acetyl-K sites regulated: of 3618 quantified; for Number of proteins with 1 Acetyl-K site per protein / Number of proteins with 2 Acetyl-K sites per protein / Number of proteins with 3 Acetyl-K sites per protein / Number of proteins with 4 Acetyl-K sites per protein: distribution of acetylated sites in the acetylated proteins (Fig 4D)
Experimental: Cellular pellets were lysed for 15 min at 95 °C in 4% SDS, 100 mM Hepes/NaOH pH 8.0, containing 5 mM sodium butyrate and 5 mM Nicotinamide. After cooling down, lysates were incubated at 25 °C with 10 units of DNAse (Benzonase, Merk) and sonicated for 15 min in a Bioruptor for DNA shearing. Protein concentration was determined using microBCA, using BSA as standard. Samples were digested using on-bead protein aggregation capture (PAC) with ReSyn Biosciences MagReSyn® Hydoxyl microparticles (ratio Protein/Beads 1:5) in an automated King Fisher instrument (Thermo). Proteins were digested for 16 h at 37 C with LysC/Trypsin mix at a protein: enzyme ratio of 1:100 in 50 mM TEAB pH 8.0 (Trypsin Sequence grade, Sigma; LysC, Wako). The resulting peptides were speed-vac dried and dissolved in 100 µL of 200 mM HEPES pH 8.5.
Peptides (500 µg) were labeled with Thermo Scientific TMTpro 18plex™ Isobaric reagents for 1 h at 25 C. Reaction was quenched by adding 5% hydroxylamine for 15 min. Samples were pooled at a 1:1 ratio based on the total peptide amount, determined by comparing overall signal intensities on a regular LC-MS/MS run. The final mixture was desalted using a 500 mg Sep-Pak C18t cartridge (Waters) and dried prior to high pH reverse phase HPLC pre-fractionation.
Labeled peptides were fractionated offline through a high pH reverse phase chromatography using an Ultimate 3000 HPLC system equipped with a sample collector. Briefly, peptides were dissolved in 1200 µL of Buffer A (10 mM NH4OH) and loaded onto a XBridge BEH130 C18 column (3.5 µm, 250 mm length and 3.5 mm ID, Waters). Buffer B was composed of 10 mM NH4OH in 90% CH3CN. The following gradient was used at a flow rate of 500 µL/min: 0-50 min 0-25% B, 50-56 min 25-60% B, 56-57 min 60-90% B. One-minute fractions (500 µL) from […] were collected and neutralized with 10% formic acid. Based on the UV absorbance at 280 nm, 95% of the volume of 40 fractions was pooled in 5 fractions for Acetyl-Lysine enrichment. The 5% of these fractions was kept for proteome analysis. Pooled fractions were snap-frozen and lyophilized.
Lyophilized peptides (1.5 mg) from each pool were immuno-affinity purified with the PTMScan HS Acetyl-Lysine Motif (Ac−K) kit (Cell Signaling Technology). For each pool, three consecutive immuno-purifications (IPs) were performed using the manufacturer’s protocol in an automated King Fisher instrument (Thermo). Elution of purified peptides was performed in two consecutive steps of 50 μl of 0.15% TFA. Samples were desalted with C18 stage tips and eluates were vacuum dried and resuspended in 0.1% formic acid for subsequent analysis by LC−MS/MS.
LC-MS/MS was done by coupling an UltiMate 3000 RSLCnano LC system to an Orbitrap Exploris 480 mass spectrometer (Thermo Fisher Scientific). Samples were loaded into a trap column (Acclaim™ PepMap™ 100 C18 LC Columns 5 µm, 20 mm length) for 3 min at a flow rate of 10 µL/min in 0.1% FA. Peptides were then transferred to an EASY-Spray PepMap RSLC C18 column (Thermo) (2 µm, 75 µm x 50 cm) operated at 45 °C and separated using a 90 min effective gradient (buffer A: 0.1% FA; buffer B: 100% ACN, 0.1% FA) at a flow rate of 250 nL/min. The gradient used was, from 4% to 6% of buffer B the first 2 min, from 6% to 33% B the next 58 min, plus 10 additional minutes at 98% B.
The mass spectrometer was operated in a data-dependent mode, with an automatic switch between MS and MS/MS scans using a top 15 method. (Intensity threshold ≥ 1e4, dynamic exclusion of 20 sec and excluding charges unassigned, +1 and ≥ +7). MS spectra were acquired from 350 to 1500 m/z with a resolution of 60,000 FMHW (200 m/z). Ion peptides were isolated using a 0.7 Th window and fragmented using higher-energy collisional dissociation (HCD) with a normalized collision energy NCE of 36. MS/MS spectra were acquired with a fixed first mass of 120 m/z and a resolution of 45,000 FMHW (200 m/z). […]

[1] = ML-2, first (superseded) acetylome experiment, peer review file

Row | SMILES | CD11b (%) (MONO-MAC-6) | CD11b (%) (OCI-AML2) | CD11b (%) (UT-7) | CD11b (%) (NB-4) | CD11b (%) (OCI-AML3) | CD11b (%) (KASUMI-1) | CD11b (%) (GF-D8) | CD11b (%) (M-O7e) | Number of proteins with >5 Acetyl-K sites per protein (ML-2) | Acetyl-K sites regulated, Number, Histone proteins (ML-2) | Acetyl-K sites regulated, Number, Non-histone proteins (ML-2) | Acetyl-K sites regulated, Percentages, Histone proteins (ML-2) | Acetyl-K sites regulated, Percentages, Non-histone proteins (ML-2) | Acetyl-K sites: Down-regulated, % (ML-2) [%] | Acetyl-K sites: Down-regulated, Number (ML-2) | Acetyl-K sites: Non-regulated, % (ML-2) [%] | Acetyl-K sites: Non-regulated, Number (ML-2) | Acetyl-K sites: Quantified (total number) (ML-2) | Acetyl-K sites: Regulated, % (ML-2) [%] | Acetyl-K sites: Regulated, Number (ML-2) | also measured
1 | COc1cc2nc(-c3ccc(C)o3)cc(NCC3CCN(c4ncc(C(=O)NO)cn4)CC3)c2cc1OC [CM-444, 2-[4-[[[6,7-dimethoxy-2-(5-methyl-2-furyl)-4-quinolyl]amino]methyl]-1-piperidyl]pyrimidine-5-carbohydroxamic acid] | 69.4% and 75.8% and 60.6% | 21.1% and 24.6% and 20.5% | 16.8% and 20.4% and 21.0% | 46.5% and 38.3% and 33.9% | 36.4% and 23.4% and 30.8% | 16.9% and 10.6% and 19.6% | 26.5% and 25.8% and 22.1% | 5.2% and 11.2% and 10.9% | 14 | 58 | 766 | 7 | 93 | 11.9 | 429 | 77.2 | 2794 | 3618 | 22.8 | 824 | Acetyl-K sites: Up-regulated, % (ML-2): 10.9%; Acetyl-K sites: Up-regulated, Number (ML-2): 395; fraction of regulated acetylation sites upregulated (ML-2; ML-2, 25% GI50, 12 h): 47.9%; Acetyl-K sites, Down-regulated (ML-2; ML-2, 25% GI50, 12 h): 429; Acetyl-K sites, Up-regulated (ML-2; ML-2, 25% GI50, 12 h): 395; regulated Acetyl-K sites in Histone proteins (ML-2; ML-2, 25% GI50, 12 h): 58; regulated Acetyl-K sites in Non-histone proteins (ML-2; ML-2, 25% GI50, 12 h): 766; percentage of Acetyl-K sites regulated (ML-2; ML-2, 25% GI50, 12 h): 22.8%; acetyl K-sites regulated specifically by the compound (ML-2; [1]): 202; fraction of regulated acetylation sites upregulated (ML-2; [1]): 49.7%; Number of proteins with 1 Acetyl-K site per protein (ML-2): 421; Number of proteins with 2 Acetyl-K sites per protein (ML-2): 79; Number of proteins with 3 Acetyl-K sites per protein (ML-2): 29; Number of proteins with 4 Acetyl-K sites per protein (ML-2): 14
2 | COc1cc2nc(-c3cc(C)oc3C)cc(NCC3CCN(c4ncc(C(=O)NO)cn4)CC3)c2cc1OC [CM-1758, 2-[4-[[[2-(2,5-dimethyl-3-furyl)-6,7-dimethoxy-4-quinolyl]amino]methyl] -1-piperidyl]pyrimidine-5-carbohydroxamic acid] | 61.3% and 69.1% and 60.1% | 39.01% and 39.3% and 37.1% | 21.8% and 25.6% and 23.1% | 41.82% and 48.2% and 36.4% | 51.4% and 49.5% and 45.2% | 24.2% and 19.4% and 12.5% | 27.3% and 20% and 28.6% | 17.02% and 15.8% and 12.9% | 14 | 55 | 681 | 7.5 | 92.5 | 10.9 | 395 | 79.7 | 2882 | 3618 | 20.3 | 736 | Acetyl-K sites: Up-regulated, % (ML-2): 9.4%; Acetyl-K sites: Up-regulated, Number (ML-2): 341; fraction of regulated acetylation sites upregulated (ML-2; ML-2, 25% GI50, 12 h): 46.3%; Acetyl-K sites, Down-regulated (ML-2; ML-2, 25% GI50, 12 h): 395; Acetyl-K sites, Up-regulated (ML-2; ML-2, 25% GI50, 12 h): 341; regulated Acetyl-K sites in Histone proteins (ML-2; ML-2, 25% GI50, 12 h): 55; regulated Acetyl-K sites in Non-histone proteins (ML-2; ML-2, 25% GI50, 12 h): 681; percentage of Acetyl-K sites regulated (ML-2; ML-2, 25% GI50, 12 h): 20.3%; acetyl K-sites regulated specifically by the compound (ML-2; [1]): 80; fraction of regulated acetylation sites upregulated (ML-2; [1]): 61.2%; Number of proteins with 1 Acetyl-K site per protein (ML-2): 381; Number of proteins with 2 Acetyl-K sites per protein (ML-2): 73; Number of proteins with 3 Acetyl-K sites per protein (ML-2): 31; Number of proteins with 4 Acetyl-K sites per protein (ML-2): 6
